Laboratory results reported in US6319702A, “Nucleic acids encoding mutant human carboxypeptidase A enzymes” (Glaxo Wellcome, Inc., priority 1993, dated 2001).
Values joined by “and” are separate entries in the source; they are usually repeats but may differ in a detail not shown here. Equal entries are not always repeated. Where two headings read alike, the source gives them in different places.

Experiment: Stability and biodistribution of prodrugs in vivo (HPLC of plasma and tissues)
Set-up: species or system mice (CD-1 nude; BALB/C where indicated)
Details: 50 mg/kg i.p. or i.v., CD-1 nude mice; for remaining at 0.5 h / remaining at 2 h / concentration at 2 h / concentration at 0.5 h: mouse
[1] = LARGE INTESTINE, 30 min, 50 mg/kg
[2] = LIVER, 120 min, listed as 552W92, 50 mg/kg
[3] = kidney, 50 mg/kg, KIDNEY, 30 min, read-out: stability: percentage of material observed as intact prodrug, kidney
[4] = kidney, 50 mg/kg, KIDNEY, 120 min, read-out: stability: percentage of material observed as intact prodrug, kidney
[5] = large intestine, 50 mg/kg, LARGE INTESTINE, 30 min, read-out: stability: percentage of material observed as intact prodrug, large intestine
[6] = large intestine, 50 mg/kg, LARGE INTESTINE, 120 min, read-out: stability: percentage of material observed as intact prodrug, large intestine
[7] = liver, 50 mg/kg, LIVER, 30 min, read-out: stability: percentage of material observed as intact prodrug, liver (converted)
[8] = liver, 50 mg/kg, LIVER, 120 min, read-out: stability: percentage of material observed as intact prodrug, liver
[9] = plasma, 50 mg/kg, PLASMA, 30 min, read-out: stability: percentage of material observed as intact prodrug, plasma
[10] = plasma, 50 mg/kg, PLASMA, 120 min, read-out: concentration of prodrug in plasma
[11] = small intestine, 50 mg/kg, SMALL INTESTINE, 30 min, read-out: stability: percentage of material observed as intact prodrug, small intestine
[12] = small intestine, 50 mg/kg, SMALL INTESTINE, 120 min, read-out: stability: percentage of material observed as intact prodrug, small intestine
[13] = spleen, 50 mg/kg, SPLEEN, 30 min, read-out: stability: percentage of material observed as intact prodrug, spleen
[14] = spleen, 50 mg/kg, SPLEEN, 120 min, read-out: stability: percentage of material observed as intact prodrug, spleen
[15] = cecum, 50 mg/kg, CECUM, 30 min, read-out: stability: percentage of material observed as intact prodrug, cecum
[16] = cecum, 50 mg/kg, CECUM, 120 min, read-out: stability: percentage of material observed as intact prodrug, cecum
[17] = plasma, 50 mg/kg, PLASMA, 30 min, read-out: concentration of prodrug in plasma
[18] = plasma, 50 mg/kg, PLASMA, 120 min, read-out: stability: percentage of material observed as intact prodrug, plasma
[19] = tumor, 50 mg/kg, TUMOR, 30 min, read-out: stability: percentage of material observed as intact prodrug, tumor
[20] = tumor, 50 mg/kg, TUMOR, 120 min, read-out: stability: percentage of material observed as intact prodrug, tumor

Structure (SMILES) | concentration of prodrug in small intestine (SMALL INTESTINE, 30 min) [nmol/g] | concentration of prodrug in small intestine (SMALL INTESTINE, 120 min) [nmol/g] | remaining at 0.5 h [3] [%] | remaining at 2 h [4] [%] | remaining at 0.5 h [5] [%] | remaining at 2 h [6] [%] | remaining at 0.5 h [7] [%] | remaining at 2 h [8] [%] | remaining at 0.5 h [9] [%] | concentration at 2 h [10] [µM] | remaining at 0.5 h [11] [%] | remaining at 2 h [12] [%] | remaining at 0.5 h [13] [%] | remaining at 2 h [14] [%] | concentration of prodrug in cecum (CECUM, 30 min) [nmol/g] | concentration of prodrug in cecum (CECUM, 120 min) [nmol/g] | concentration of prodrug in kidney (KIDNEY, 30 min) [nmol/g] | concentration of prodrug in kidney (KIDNEY, 120 min) [nmol/g] | concentration of prodrug in large intestine (LARGE INTESTINE, 30 min) [nmol/g] | concentration of prodrug in large intestine (LARGE INTESTINE, 120 min) [nmol/g] | other results
Cc1nc2ccc3ccc(CNc4ccc(C(=O)N[C@@H](CCC(=O)O)C(=O)N[C@@H](Cc5cccc6ccccc56)C(=O)O)c(F)c4)cc3c2c(=O)[nH]1 [Prodrug 3, N-(N-(2-fluoro-4-(((1,2-dihydro-3-methyl-1-oxobenzo(F)quinazolin-9-yl)methyl)amino)benzoyl)-L-glutam-1-yl)-3-(1-naphthyl)-L-alanine] | 27.7 | 1.8 | 82 | 74 | 87 | 89 | 79 | 74 | 93 | 5.1 | 10 | 1 | 95 | 89 |  |  |  |  |  |  | concentration of prodrug in kidney (KIDNEY, 30 min, 50 mg/kg): 41.7 nmol/g and 29.2 nmol/g; concentration of prodrug in large intestine [1]: 23.4 nmol/g and 14.9 nmol/g; stability: percentage of material observed as intact prodrug, large intestine [1]: 94%; concentration of prodrug in large intestine (LARGE INTESTINE, 120 min, listed as 552W92, 50 mg/kg): 1.7 nmol/g and 1.1 nmol/g; concentration of prodrug in liver (LIVER, 30 min, 50 mg/kg): 128.8 nmol/g and 135.3 nmol/g; concentration of prodrug in liver [2]: 267.9 nmol/g and 371.2 nmol/g; stability: percentage of material observed as intact prodrug, liver [2]: 90%; stability: percentage of material observed as intact prodrug, plasma (PLASMA, 120 min, listed as 552W92, 50 mg/kg): 48%; concentration (PLASMA, 120 min, listed as 552W92, 50 mg/kg, 120 min, read-out: concentration of prodrug in plasma): 2.8 µM; stability: percentage of material observed as intact prodrug, spleen (SPLEEN, 30 min, 50 mg/kg): 100%; stability: percentage of material observed as intact prodrug, spleen (SPLEEN, 120 min, listed as 552W92, 50 mg/kg): 100%
Cc1nc2ccc3ccc(CNc4ccc(C(=O)N[C@@H](CCC(=O)O)C(=O)N[C@@H](Cc5ccccc5C(=O)O)C(=O)O)c(F)c4)cc3c2c(=O)[nH]1 [Prodrug 4, N-(N-(4(((1,2-dihydro-3-methyl-1-oxobenzo(F)quinazolin-9-yl)methyl)amino)-2-fluorobenzoyl)-L-glutam-1-yl)-2-carboxy-L-phenylanine] | 188.1 | 69.1 | 100 | 99 | 100 | 100 | 99 | 98 | 100 | 1.4 | 99 | 98 | 99 |  | 6.7 | 1.3 | 94.5 | 14.5 | 25.3 | 45.4 | concentration of prodrug in liver (LIVER, 30 min): 343.4 nmol/g; concentration of prodrug in liver (LIVER, 120 min): 33.3 nmol/g; concentration of prodrug in spleen (SPLEEN, 30 min): 30.9 nmol/g; concentration of prodrug in tumor (TUMOR, 30 min): 6.7 nmol/g; concentration of prodrug in tumor (TUMOR, 120 min): 1.3 nmol/g; remaining at 0.5 h [15]: 100%; remaining at 2 h [16]: 100%; concentration at 0.5 h [17]: 71.4 µM; remaining at 2 h [18]: 99%; remaining at 0.5 h [19]: 100%; remaining at 2 h [20]: 100%
Cc1nc2ccc3ccc(CNc4ccc(C(=O)N[C@@H](CCC(=O)O)C(=O)N[C@@H](Cc5ccccc5I)C(=O)O)c(F)c4)cc3c2c(=O)[nH]1 [Prodrug 5] | 32.1 | 1.6 | 83 | 96 | 93 | 8 | 81 | 41 | 98 | 9.4 | 40 | 2 | 85 | 81 | 4.7 | 2.9 | 42.5 | 3.0 | 28.4 | 1.6 | concentration of prodrug in liver (LIVER, 30 min): 118.2 nmol/g; concentration of prodrug in liver (LIVER, 120 min): 7.5 nmol/g; concentration of prodrug in spleen (SPLEEN, 30 min): 34.3 nmol/g; concentration of prodrug in spleen (SPLEEN, 120 min): 3.2 nmol/g; concentration of prodrug in tumor (TUMOR, 30 min): 4.7 nmol/g; concentration of prodrug in tumor (TUMOR, 120 min): 2.9 nmol/g; remaining at 0.5 h [15]: 95%; remaining at 2 h [16]: 88%; concentration at 0.5 h [17]: 115 µM; remaining at 2 h [18]: 95%; remaining at 0.5 h [19]: 95%; remaining at 2 h [20]: 88%
